{"source": "patent US20260248961A1", "about": "“UTILIZATION OF A HIBERNATION-LIKE STATE IN NEUROLOGICAL DISEASES” (OKINAWA INSTITUTE OF SCIENCE AND TECHNOLOGY SCHOOL …, priority 2022, published 2026)", "key": {"[1]": {"conditions": "applied on the epileptogenic zone; even after decades of monitoring (NPL22); cited from earlier work"}, "[2]": {"conditions": "over four thousand adult patients (NPL17); cited from earlier work"}, "[3]": {"system": "contextual fear memory", "experiment": "Contextual fear conditioning after QIH", "assay_type": "in vivo, mice", "conditions": "after 48 hours of QIH and 72 hours recovery", "method": "(§1) Two to three weeks after surgery, mice were first habituated to intraperitoneal (i.p.) injection of saline four times (once per day). On the day of QIH induction, mice were allowed to be habituated to the experimental room (15C) for 1 hour. A dose of 1 mg/kg of clozapine N-oxide (CNO) was i.p. injected to induce QIH in the same experimental room under darkness and low ambient temperatures of about 18-19 degrees celsius. Mice were allowed to stay in the room for 48 hours, and then returned to the housing colony once the QIH state had wore off.\nMice were first handled by an experimenter for at least 5 days to reduce their anxiety. During conditioning, the animals were first allowed to explore the context A (30.5L×24.1W×21H cm, metal grid floor, ethanol odor, white light, white noise) and then received 5 foot shocks (0.75 mA for 2 seconds with 30 seconds inter-shock-intervals). Next day, the same animals returned to the shocked context A and a novel neutral context B (30.5L×24.1W×21H cm, plastic flat floor, acetic acid odor, NIR light under darkness, triangle roof). After QIH induction and recovery, the mice were retested both in contexts A and B."}, "[4]": {"system": "pilocarpine model of TLE", "experiment": "SRS onset monitoring after QIH induction during the latent period, pilocarpine model of TLE", "assay_type": "in vivo, mice", "method": "as §1\n(§2) On the day of seizure injection, mice were first i.p. injected with 0.07 mL of scopolamine solution (0.5 mg/mL) to prevent adverse peripheral side effects. Thirty minutes later, 280 mg/kg pilocarpine solution was i.p. injected to produce acute seizure. After the mice reach stage 3, 4, or 5 on the Racine scale of behavioral seizures (modified version below), the development of status epilepticus (SE) is confirmed as a continuous state of seizures characterised by a behavioral expression such as a prominent head tic, rigidity of body and tail, and immobility. One to 3 hours after the initial onset of SE, 0.04 mL of Midazolam (5 mg/mL) was i.p. injected to attenuate the seizures.\nAnimals are observed by trained personnel on a daily basis, starting with the first day after QIH exit. The monitoring process is performed while animals are in their homecages, in the experimental room. Observation is conducted for one hour per mouse per day using the scale above (table 1) to identify the severity of the behavioral seizures as they occur. For each mouse, the day on which the first seizure is observed, as well as the perceived severity, are recorded."}, "[5]": {"system": "Q-neurons in the anteroventral periventricular nucleus (AVPe)", "experiment": "QIH induction by CNO with body temperature and extracellular tetrode recording", "assay_type": "in vivo, mice", "method": "All animals were single-housed prior to surgery. During surgery, mice were anesthetized with MMB (a cocktail of medetomidine, midazolam, and butorphanol) and 500 nL of AAV-hSyn-DIO-hM3D(Gq)-mCherry vector was infused through a small craniotomy above AVPe (ML ±0.3; AP +0.38; DV −5.0) at a rate of 50 nL per minute with a micropump syringe (World Precision Instrument). After infusion, the 35 G needle stayed at the infusion site for at least 15 minutes to allow diffusion of the vector. After surgery, animals were carefully monitored to full recovery. For LFP and single/multi-unit recording, we implanted a microdrive consisting of 9 independently adjustable tetrodes (14 um diameter, nichrome wire, gold plated to 200-300 kΩ). In the 2-3 weeks after surgery the depth of the tetrodes were slowly and manually adjusted until stable recording of LFP signals or separatable spike clusters was observed. All adjustments were conducted in a highly familiar small plastic bucket located in the recording room while the animals moved and behaved freely.\nas §1\nAll data were acquired using 32-channel Digital Lynx 4SX acquisition system (Neuralynx). The local field potential (LFP) was filtered at 2-9000 Hz. Spike waveforms were filtered between 0.6-6 kHz and those above a peak threshold of […] were time-stamped and digitized at 32,556 Hz. Spikes were manually sorted using SpikeSort3D software (Neuralynx). In short, waveform amplitudes of all spikes recorded from three channels were projected to three dimensional space and putative units were clustered. This procedure was repeated for all combinations of channels and also for energy of spikes. […] A low-pass filter with a cut-off frequency equal to half the target sampling frequency was applied to the LFP prior to downsampling to prevent signal distortion."}, "[6]": {"experiment": "Seizure induction with pilocarpine", "assay_type": "in vivo, mice", "method": "as §2"}}, "note": "“Also recorded” adds a separate entry of the source."}
{"smiles": "CCCl", "note": "[ethyl chloride]", "values": [{"measurement": "seizure outcome", "setting": "[1]", "value": "complete remission from seizures"}]}
{"smiles": "NS(=O)(=O)Cc1noc2ccccc12", "note": "[Zonisamide]", "values": [{"measurement": "rate of psychiatric and behavioral side effects among the medications", "setting": "[2]", "value": "highest rates of side effects"}]}
{"smiles": "C[N+]1([O-])CCN(C2=Nc3cc(Cl)ccc3Nc3ccccc32)CC1", "note": "[CNO, clozapine-N-oxide]", "values": [{"measurement": "freezing behavior in Post-Test A", "setting": "[3]; vs control animals without induction, FIG. 3B", "value": "comparable level of freezing behavior"}, {"measurement": "freezing in Post-Test B (neutral context)", "setting": "[3]; all groups", "value": "negligible degree of freezing"}, {"measurement": "SRS onset (duration of the latent phase)", "setting": "[4]; QIH induced 24 h after midazolam, 48 h QIH, vs control animals in QIH chamber without induction, FIG. 2B", "value": "drastic delay in the SRS onset; also recorded: significantly delayed"}, {"measurement": "severity of SRS (Racine scale)", "setting": "[4]; QIH vs no QIH during the latent phase, FIG. 2C", "value": "no difference in the severity in the SRS"}, {"measurement": "time of SRS after induction of the hibernation-like state", "setting": "[4]; as opposed to 1-2 weeks in the rodent model", "value": "several months"}, {"measurement": "body temperature during QIH", "setting": "[5]; after CNO injection (1 mg/kg i.p.), Qrfp-iCre mice with AAV-hSyn-DIO-hM3D(Gq)-mCherry in AVPe, FIG. 1A", "value": "reduction in their body temperature"}, {"measurement": "spike activity of individual pyramidal cells in the dorsal CA1", "setting": "[5]; after QIH induction, FIG. 1C", "value": "rapid reduction in their spike activity"}, {"measurement": "power spectral density of LFP in the dorsal CA1", "setting": "[5]; during QIH, FIG. 1B", "value": "substantial reduction in broad frequency ranges"}, {"measurement": "time mice stay under QIH after injection", "setting": "[5]; intraperitoneal CNO, spontaneous awakening and rewarming afterwards", "value": 48, "unit": "h"}, {"measurement": "multi-unit activity recorded from the hypothalamus", "setting": "[5]; upon QIH induction, FIG. 1D", "value": "reduced upon induction of QIH"}]}
{"smiles": "CC[C@@H]1C(=O)OC[C@@H]1Cc1cncn1C", "note": "[Pilocarpine, pilocarpine]", "values": [{"measurement": "time to seizures after injection", "setting": "[6]; 280 mg/kg i.p.", "value": "thirty"}, {"measurement": "duration of prolonged seizure (status epilepticus)", "setting": "[6]; before termination with an anticonvulsant drug", "value": "about two"}]}
{"smiles": "CC[C@@H](C(N)=O)N1CCCC1=O", "note": "[Levetiracetam]", "values": [{"measurement": "rate of psychiatric and behavioral side effects among the medications", "setting": "[2]", "value": "highest rates of side effects"}]}
